Holding throughout (type): biochemical
For one experiment, the target named is JAK2 (Homo sapiens (Human), UniProt O60674). Kind of experiment: JAK enzymatic assay (peptide mobility shift), JAK2. The conditions noted are these: recombinant JAK2 2 nM, JAKtide peptide, 150 minutes. From the text:
Recombinant JAK1 (Catalog Number PV4775), JAK2 (Catalog Number PV4210) and JAK3 (Catalog Number PV3855) were purchased from (Invitrogen Corporation, Madison, Wis.). Tyk2 (His-Tyk2 (888-1182, C936S, C1142S)) used in this study was expressed and purified at Pfizer Laboratories. Adenosine 5′-triphosphate (ATP) was obtained from (Sigma Chemical Company, St. Louis, Mo.). […] Coating Reagent 3 was purchased from (Caliper Life Sciences, Hopkinton, Mass.).
A peptide mobility shift assay was used to quantify the phosphorylation of the JAKtide (JAK2 and JAK3) or the IRS-1 peptide (JAK1 and Tyk2). Reactions were carried out in a 384-well plate (Matrical MP-101) in a 10 L total volume. […] Compounds were diluted serially in 100% dimethyl sulfoxide and tested in an 11 point dose response in duplicate or quadruplicate (200 nl of compound/DMSO was added per 10 L reaction). The reactions were initiated by the addition of enzyme to the final concentration of 2 nM JAK2, 1 nM JAK3, 12 nM Tyk2 or 20 nM JAK1. The assay was run for 240 minutes for JAK1, 150 minutes for JAK2, 90 minutes for JAK3 and 70 minutes for Tyk2. The assays were stopped at the specified times with 20 uL of 140 mM HEPES, 22.5 mM EDTA and 0.15% Coating Reagent 3. The plates were placed on a LabChip 3000 (LC3000) instrument from (Caliper Life Sciences) to measure the formation of phosphorylated peptide. Data was analyzed using Hits Well Analyzer Software from (Caliper Life Sciences) to obtain the amount of product formed.
(§1) Data was then imported into an internal application where each data point is expressed as % inhibition based on uninhibited and no enzyme controls. Dose-response data is then fit using a 4 parameter logistic equation (Equation 1) to determine an IC50.

For another experiment, the target named is JAK1 (Homo sapiens (Human), UniProt P23458). Briefly: JAK enzymatic assay (peptide mobility shift), JAK1. The settings on record: recombinant JAK1 20 nM, IRS-1 peptide, 240 minutes. The procedure:
(§2) Recombinant JAK1 (Catalog Number PV4775), JAK2 (Catalog Number PV4210) and JAK3 (Catalog Number PV3855) were purchased from (Invitrogen Corporation, Madison, Wis.). […] Adenosine 5′-triphosphate (ATP) was obtained from (Sigma Chemical Company, St. Louis, Mo.). […] Coating Reagent 3 was purchased from (Caliper Life Sciences, Hopkinton, Mass.).
(§3) Compounds were diluted serially in 100% dimethyl sulfoxide and tested in an 11 point dose response in duplicate or quadruplicate (200 nl of compound/DMSO was added per 10 L reaction). […] The assay was run for 240 minutes for JAK1, 150 minutes for JAK2, 90 minutes for JAK3 and 70 minutes for Tyk2. […] The plates were placed on a LabChip 3000 (LC3000) instrument from (Caliper Life Sciences) to measure the formation of phosphorylated peptide. Data was analyzed using Hits Well Analyzer Software from (Caliper Life Sciences) to obtain the amount of product formed.
as §1

In a further experiment the target is JAK3 (Homo sapiens (Human), UniProt P52333). Kind of experiment: JAK enzymatic assay (peptide mobility shift), JAK3. The conditions noted are these: recombinant JAK3 1 nM, JAKtide peptide, 90 minutes. The procedure: as §2, §3, §1
Sequence of JAK3 (P52333 781-1124): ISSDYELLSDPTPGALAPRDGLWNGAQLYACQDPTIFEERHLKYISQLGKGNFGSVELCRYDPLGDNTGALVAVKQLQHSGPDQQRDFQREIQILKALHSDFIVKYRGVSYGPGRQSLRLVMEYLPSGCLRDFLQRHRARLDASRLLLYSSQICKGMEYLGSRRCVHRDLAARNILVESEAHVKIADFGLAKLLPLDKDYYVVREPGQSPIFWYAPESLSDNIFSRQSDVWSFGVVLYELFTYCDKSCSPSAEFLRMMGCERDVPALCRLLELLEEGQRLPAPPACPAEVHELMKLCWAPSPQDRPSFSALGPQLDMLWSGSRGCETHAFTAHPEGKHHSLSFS

Sequence of JAK1 (P23458 whole entry): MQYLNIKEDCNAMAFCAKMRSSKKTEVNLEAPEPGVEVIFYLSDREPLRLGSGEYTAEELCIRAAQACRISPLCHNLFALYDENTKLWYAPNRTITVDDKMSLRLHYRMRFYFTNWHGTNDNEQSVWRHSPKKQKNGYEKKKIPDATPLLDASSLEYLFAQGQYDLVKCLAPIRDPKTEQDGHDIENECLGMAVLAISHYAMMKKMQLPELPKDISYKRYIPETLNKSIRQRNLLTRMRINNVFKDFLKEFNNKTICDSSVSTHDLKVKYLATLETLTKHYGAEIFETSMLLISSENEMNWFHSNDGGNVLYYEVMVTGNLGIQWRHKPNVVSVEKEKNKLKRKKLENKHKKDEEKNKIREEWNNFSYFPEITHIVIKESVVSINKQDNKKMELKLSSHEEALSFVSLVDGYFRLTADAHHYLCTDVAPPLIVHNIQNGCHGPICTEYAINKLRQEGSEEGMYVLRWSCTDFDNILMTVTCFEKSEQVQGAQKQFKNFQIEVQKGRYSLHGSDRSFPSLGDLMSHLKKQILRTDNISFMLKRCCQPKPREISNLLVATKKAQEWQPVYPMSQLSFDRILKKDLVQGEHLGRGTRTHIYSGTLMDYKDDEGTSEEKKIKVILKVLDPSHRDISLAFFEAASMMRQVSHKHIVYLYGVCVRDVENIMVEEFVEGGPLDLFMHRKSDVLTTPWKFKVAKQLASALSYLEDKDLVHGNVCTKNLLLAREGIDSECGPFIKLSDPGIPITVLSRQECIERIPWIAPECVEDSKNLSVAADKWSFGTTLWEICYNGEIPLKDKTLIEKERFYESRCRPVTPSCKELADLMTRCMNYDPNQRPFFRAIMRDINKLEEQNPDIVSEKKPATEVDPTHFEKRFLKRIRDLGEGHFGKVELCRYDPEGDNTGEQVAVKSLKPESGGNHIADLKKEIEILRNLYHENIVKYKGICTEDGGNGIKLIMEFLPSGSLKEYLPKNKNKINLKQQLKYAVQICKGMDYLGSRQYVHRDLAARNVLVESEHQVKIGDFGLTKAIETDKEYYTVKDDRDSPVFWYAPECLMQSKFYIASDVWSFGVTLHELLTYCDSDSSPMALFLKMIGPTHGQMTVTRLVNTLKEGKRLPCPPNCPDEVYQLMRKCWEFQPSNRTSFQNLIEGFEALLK
Sequence of JAK2 (O60674 808-1132): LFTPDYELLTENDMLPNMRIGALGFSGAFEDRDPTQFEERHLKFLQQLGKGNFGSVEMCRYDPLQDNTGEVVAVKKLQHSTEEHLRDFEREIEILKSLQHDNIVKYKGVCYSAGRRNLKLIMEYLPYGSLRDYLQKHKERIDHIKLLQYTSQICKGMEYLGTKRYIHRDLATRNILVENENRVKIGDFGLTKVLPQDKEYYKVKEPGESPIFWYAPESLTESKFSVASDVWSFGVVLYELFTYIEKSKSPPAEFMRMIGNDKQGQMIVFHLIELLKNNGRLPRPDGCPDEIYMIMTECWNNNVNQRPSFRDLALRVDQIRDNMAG

On to `CN(c1ncnc2[nH]ccc12)[C@H]1CC[C@H](CS(=O)(=O)N2CCC(COCC3CC3)CC2)CC1` [Example 56, N-{trans-4-[({4-[(cyclopropyl-methoxy)-methyl]piperidin-1-yl}-sulfonyl)-methyl]-cyclohexyl}-N-methyl-7H-pyrrolo[2,3-d]-pyrimidin-4-amine], for which the IC50 (usually the concentration that inhibits the measured activity by half) at JAK2 came to 59.8 nM; on JAK1, 4.07 nM; at JAK3 it was 170 nM.

Turning to `CN(c1ncnc2[nH]ccc12)[C@H]1CC[C@@H](CS(=O)(=O)N2CCC[C@H](C#N)C2)CC1` [Example 39, 1-[({cis-4-[methyl(7H-pyrrolo[2,3-d]pyrimidin-4-yl)amino]cyclohexyl}-methyl)sulfonyl]piperidine-3-carbonitrile], the results for the IC50 on JAK2, at JAK1 and on JAK3 were 75.4 nM, 23.4 nM and 393 nM, respectively.

Turning to `COCC1CCN(S(=O)(=O)C[C@H]2CC[C@H](N(C)c3ncnc4[nH]ccc34)CC2)CC1` [Example 43, N-[trans-4-({[4-(methoxy-methyl)piperidin-1-yl]-sulfonyl}methyl)-cyclohexyl]-N-methyl-7H-pyrrolo[2,3-d]pyrimidin-4-amine], the results for the IC50 at JAK2, at JAK1 and at JAK3 were 71 nM, 12.8 nM and 434 nM, respectively.

With `CN(c1ncnc2[nH]ccc12)[C@H]1CC[C@H](CS(=O)(=O)N2CCC[C@H](CS(C)(=O)=O)C2)CC1` [Example 67, N-methyl-N-{trans-4-[({3-[(methylsulfonyl)methyl]-piperidin-1-yl}sulfonyl)-methyl]cyclohexyl}-7H-pyrrolo[2,3-d]pyrimidin-4-amine], the IC50 turned out to be 92.2 nM at JAK2, 20.6 nM on JAK1 and 573 nM on JAK3.

On to `CN(c1ncnc2[nH]ccc12)[C@H]1CC[C@H](CS(=O)(=O)N2CC[C@@H](CC#N)C2)CC1` [Example 35, {(3S)-1-[({trans-4-[methyl(7H-pyrrolo[2,3-d]pyrimidin-4-yl)amino]cyclohexyl}methyl)-sulfonyl]pyrrolidin-3-yl}acetonitrile], for which the IC50 stood at 52.6 nM at JAK2, 11.1 nM on JAK1 and 447 nM at JAK3.

As to `C[C@@H]1C[C@@H](CS(=O)(=O)N2CCC[C@@H](O)C2)CC[C@@H]1N(C)c1ncnc2[nH]ccc12` [Example 129, (3R)-1-[({(1S,3R,4S)-3-methyl-4-[methyl(7H-pyrrolo[2,3-d]pyrimidin-4-yl)amino]cyclohexyl}-methyl)sulfonyl]piperidin-3-ol], the IC50 was found to be 6.89 nM on JAK2, 1.7 nM on JAK1 and 19.4 nM at JAK3.

On to `CCN(CC)C(=O)C1CCN(S(=O)(=O)C[C@H]2CC[C@H](N(C)c3ncnc4[nH]ccc34)CC2)CC1` [Example 52, N,N-diethyl-1-[({trans-4-[methyl(7H-pyrrolo[2,3-d]-pyrimidin-4-yl)amino]-cyclohexyl}methyl)sulfonyl] piperidine-4-carboxamide], for which the IC50 amounted to 115 nM on JAK2, 22.6 nM on JAK1 and 1240 nM on JAK3.

In the case of `CC(=O)C1CCCN(S(=O)(=O)C[C@H]2CC[C@H](N(C)c3ncnc4[nH]ccc34)CC2)C1` (stereo partly drawn) [Example 5, 1-{1-[({trans-4-[methyl(7H-pyrrolo[2,3-d]pyrimidin-4-yl)amino]-cyclohexyl}methyl)sulfonyl]-piperidin-3-yl}ethanone], the IC50 at JAK2 was determined as 21.9 nM; at JAK1, 7.07 nM; on JAK3, 339 nM.

Consider `CN(c1ncnc2[nH]ccc12)[C@H]1CC[C@H](CS(=O)(=O)N2CCC(C#N)CC2)CC1` [Example 42, 1-[({trans-4-[methyl(7H-pyrrolo[2,3-d]pyrimidin-4-yl)amino]cyclohexyl}-methyl)sulfonyl]piperidine-4-carbonitrile], for which the IC50 turned out to be 66.9 nM at JAK2, 16.5 nM at JAK1 and 431 nM on JAK3.

In the case of `CN(c1ncnc2[nH]ccc12)[C@H]1CC[C@H](CS(=O)(=O)N2CC[C@H](NC(=O)C(F)(F)F)C2)CC1` [Example 75, 2,2,2-trifluoro-N-{(3S)-1-[({trans-4-[methyl(7H-pyrrolo[2,3-d]pyrimidin-4-yl)amino]cyclohexyl}methyl)-sulfonyl]pyrrolidin-3-yl}acetamide], the IC50 on JAK2 worked out at 62.2 nM; at JAK1, 19.1 nM; on JAK3 it was 399 nM.

For `CN(c1ncnc2[nH]ccc12)[C@H]1CC[C@H](CS(=O)(=O)N2CC[C@](O)(c3ccccn3)C2)CC1` [Example 103, 1-[({trans-4-[methyl(7H-pyrrolo[2,3-d]pyrimidin-4-yl)-amino]cyclohexyl}-methyl)sulfonyl]-3-pyridin-2-ylpyrrolidin-3-ol], the IC50 on JAK2 was found to be 35.8 nM; at JAK1 it was 10.6 nM; at JAK3 it was 294 nM.

In the case of `CC1CN(S(=O)(=O)C[C@H]2CC[C@H](N(C)c3ncnc4[nH]ccc34)CC2)CCN1C` (stereo partly drawn) [Example 38, N-(trans-4-{[(3,4-dimethylpiperazin-1-yl)-sulfonyl]methyl}cyclo-hexyl)-N-methyl-7H-pyrrolo-[2,3-d]pyrimidin-4-amine], the IC50 stood at 126 nM on JAK2, 11.4 nM at JAK1 and 1920 nM at JAK3.

On to `CC(C)COC1CCCN(S(=O)(=O)C[C@H]2CC[C@H](N(C)c3ncnc4[nH]ccc34)CC2)C1` (stereo partly drawn) [Example 138, N-(trans-4-{[(3-isobutoxypiperidin-1-yl)sulfonyl]methyl}cyclohexyl)-N-methyl-7H-pyrrolo[2,3-d]pyrimidin-4-amine], for which the IC50 on JAK2 was found to be 0.00767 nM; on JAK1 it was 0.00133 nM; on JAK3, 0.132 nM.

As to `CN(c1ncnc2[nH]ccc12)[C@H]1CC[C@H](CS(=O)(=O)N2CCCC(C(=O)O)C2)CC1` (stereo partly drawn) [Example 16, 1-[({trans-4-[methyl(7H-pyrrolo[2,3-d]pyrimidin-4-yl)amino]cyclohexyl}methyl)-sulfonyl]piperidine-3-carboxylic acid], the IC50 at JAK2 amounted to 7.71 nM; at JAK1 it was 2.13 nM; on JAK3, 74.3 nM.

In the case of `CN(c1ncnc2[nH]ccc12)[C@H]1CC[C@H](CS(=O)(=O)N2CC[C@H](S(C)(=O)=O)C2)CC1` [Example 76, N-methyl-N-[trans-4-({[3-(methylsulfonyl)pyrrolidin-1-yl]sulfonyl}methyl)-cyclohexyl]-7H-pyrrolo[2,3-d]pyrimidin-4-amine], the IC50 at JAK2 came to 27.2 nM; on JAK1, 2.98 nM; on JAK3, 125 nM.

`CN(c1ncnc2[nH]ccc12)[C@H]1CC[C@H](CS(=O)(=O)N2C[C@@H](F)[C@H](F)C2)CC1` [Example 78, N-[trans-4-({[(3R,4R)-3,4-difluoropyrrolidin-1-yl]sulfonyl}methyl)cyclo-hexyl]-N-methyl-7H-pyrrolo[2,3-d]pyrimidin-4-amine]: the IC50 at JAK2 was 34.3 nM; on JAK1 it was 13.8 nM; on JAK3, 275 nM.

Regarding `CN1CCN(S(=O)(=O)C[C@H]2CC[C@H](N(C)c3ncnc4[nH]ccc34)CC2)CC1` [Example 136, N-methyl-N-(trans-4-{[(4-methylpiperazin-1-yl)sulfonyl]methyl}cyclohexyl)-7H-pyrrolo[2,3-d]pyrimidin-4-amine], the IC50 at JAK2 amounted to 0.109 nM; at JAK1, 0.0245 nM; at JAK3, 1.29 nM.

In the case of `CCC1(C(N)=O)CCN(S(=O)(=O)C[C@H]2CC[C@H](N(C)c3ncnc4[nH]ccc34)CC2)CC1` [Example 44, 4-ethyl-1-[({trans-4-[methyl(7H-pyrrolo[2,3-d]-pyrimidin-4-yl)amino]-cyclohexyl}methyl)sulfonyl] piperidine-4-carboxarnide], the IC50 was found to be 61.1 nM on JAK2, 8.01 nM on JAK1 and 353 nM at JAK3.

With `CN(c1ncnc2[nH]ccc12)[C@H]1CC[C@H](CS(=O)(=O)N2CC(S(=O)(=O)CC3CC3)C2)CC1` [Example 116, N-{trans-4-[({3-[(cyclopropylmethyl)-sulfonyl]azetidin-1-yl}sulfonyl)methyl]cyclo-hexyl}-N-methyl-7H-pyrrolo[2,3-d]pyrimidin-4-amine], the IC50 was 49.9 nM at JAK2, 10.7 nM on JAK1 and 298 nM at JAK3.

The record behind these values is US8633206B2, “Pyrrolo[2,3-D]pyrimidine compounds” (Pfizer Inc., priority 2009, dated 2014).
